Format in all cases: cell-based
In experiment [1] the target is Her2 exon 20 YVMA insertion (A775_G776ins YVMA) (Homo sapiens (Human), UniProt P04626, INS775YVMA). Briefly: Ba/F3-Her2 Exon20 YVMA cell anti-proliferative assay (CellTiter 96 MTS, 72 h). The following applies: Ba/F3-Her2 Exon20 YVMA cells. An excerpt: Ba/F3 cells expressing Her2 Exon20 YVMA insertions (named Ba/F3-Her2 Exon20 YVMA) can proliferate in the absence of IL-3.

The target of experiment [2] is human EGFR exon 20 insertion ASV (V769_D770insASV) (Homo sapiens (Human), UniProt P00533, INS769ASV). Kind of experiment: Ba/F3-EGFR-Exon20-ASV cell anti-proliferative assay (CellTiter 96 MTS, 72 h).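 Further: Ba/F3 cells bearing the EGFR exon 20 ASV insertion, a line able to proliferate without IL-3.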 The following applies: Ba/F3-EGFR-Exon20-ASV cells.
Sequence of human EGFR exon 20 insertion ASV (V769_D770insASV) (P00533 other isoform, or with tags, fused parts or gaps ins ASV behind 769): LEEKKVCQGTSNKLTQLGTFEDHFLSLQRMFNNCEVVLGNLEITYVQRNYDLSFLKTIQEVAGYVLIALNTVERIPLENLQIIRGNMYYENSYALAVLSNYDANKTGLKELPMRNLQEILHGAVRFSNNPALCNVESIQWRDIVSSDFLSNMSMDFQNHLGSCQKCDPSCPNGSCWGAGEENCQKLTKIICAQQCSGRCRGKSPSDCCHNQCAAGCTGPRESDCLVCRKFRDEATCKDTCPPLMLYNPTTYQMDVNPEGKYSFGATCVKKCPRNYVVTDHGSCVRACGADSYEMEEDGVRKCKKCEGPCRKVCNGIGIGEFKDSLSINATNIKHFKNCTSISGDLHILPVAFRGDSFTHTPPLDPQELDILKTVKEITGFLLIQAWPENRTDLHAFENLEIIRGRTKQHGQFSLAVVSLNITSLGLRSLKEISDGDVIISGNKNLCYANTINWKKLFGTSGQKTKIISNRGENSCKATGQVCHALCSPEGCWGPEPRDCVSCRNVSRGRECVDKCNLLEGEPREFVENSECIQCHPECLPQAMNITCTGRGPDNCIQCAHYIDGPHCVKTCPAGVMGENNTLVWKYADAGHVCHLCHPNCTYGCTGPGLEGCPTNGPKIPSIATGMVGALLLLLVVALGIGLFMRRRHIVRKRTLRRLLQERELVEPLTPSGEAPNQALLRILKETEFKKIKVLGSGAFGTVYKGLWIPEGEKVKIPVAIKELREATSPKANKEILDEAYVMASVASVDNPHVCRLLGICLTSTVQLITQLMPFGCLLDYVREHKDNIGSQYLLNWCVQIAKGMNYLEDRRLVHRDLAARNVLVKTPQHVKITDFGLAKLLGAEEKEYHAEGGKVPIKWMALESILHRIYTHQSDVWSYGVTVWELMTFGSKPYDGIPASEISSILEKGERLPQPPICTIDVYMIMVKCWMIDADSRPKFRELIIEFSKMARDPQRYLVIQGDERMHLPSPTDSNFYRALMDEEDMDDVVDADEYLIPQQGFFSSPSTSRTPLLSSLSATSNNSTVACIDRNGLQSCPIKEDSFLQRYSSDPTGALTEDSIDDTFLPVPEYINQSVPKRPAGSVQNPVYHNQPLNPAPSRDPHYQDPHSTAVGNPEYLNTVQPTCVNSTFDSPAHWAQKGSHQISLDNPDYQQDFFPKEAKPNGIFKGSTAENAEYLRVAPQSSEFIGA
Description: Ba/F3 cells expressing EGFR exon 20 insertions (named Ba/F3-EGFR-Exon20-NPG or Ba/F3-EGFR-Exon20-ASV) can proliferate in the absence of IL-3. The anti-proliferative activity of compounds were determined as follows: BaF3-EGFR-Exon20 cells (NPG or ASV) seeded in 96 well plates (2500 cells/well) were treated with test compound (dissolved in DMSO) at a series of concentrations (4-fold dilution, top concentration: 10,000 nM). The plates were incubated for 72 h in a 37° C. incubator with 5% CO2, and the number of viable cells in each well were measured indirectly by CellTiter 96® Aqueous One Solution Cell Proliferation Assay (Promega) This assay is a colorimetric method for determining the number of viable cells through measurement of their metabolic activity by detection of enzymatic conversion of tetrazolium salts into blue formazan derivatives. Reagent (20 μL) was added into each well, and the plates were returned to the incubator for 2 h. The absorbance in each well was then measured at 490 nm using an Envision plate reader (Perkin Elmer).
For experiment [3], the target named is human EGFR E746-A750 deletion and T790M Mutation (DT) (Homo sapiens (Human), UniProt P00533, DEL746-750/T790M). Kind of experiment: Ba/F3-EGFR-Del/T790M cell anti-proliferative assay (CellTiter 96 MTS, 72 h). As to conditions: Ba/F3-EGFR-Del/T790M cells; for IC50: read-out: EGFR exon 19 deletion and T790M mutation IC50.
Sequence of human EGFR E746-A750 deletion and T790M Mutation (DT) (P00533 other isoform, or with tags, fused parts or gaps T790M/del E746-A750): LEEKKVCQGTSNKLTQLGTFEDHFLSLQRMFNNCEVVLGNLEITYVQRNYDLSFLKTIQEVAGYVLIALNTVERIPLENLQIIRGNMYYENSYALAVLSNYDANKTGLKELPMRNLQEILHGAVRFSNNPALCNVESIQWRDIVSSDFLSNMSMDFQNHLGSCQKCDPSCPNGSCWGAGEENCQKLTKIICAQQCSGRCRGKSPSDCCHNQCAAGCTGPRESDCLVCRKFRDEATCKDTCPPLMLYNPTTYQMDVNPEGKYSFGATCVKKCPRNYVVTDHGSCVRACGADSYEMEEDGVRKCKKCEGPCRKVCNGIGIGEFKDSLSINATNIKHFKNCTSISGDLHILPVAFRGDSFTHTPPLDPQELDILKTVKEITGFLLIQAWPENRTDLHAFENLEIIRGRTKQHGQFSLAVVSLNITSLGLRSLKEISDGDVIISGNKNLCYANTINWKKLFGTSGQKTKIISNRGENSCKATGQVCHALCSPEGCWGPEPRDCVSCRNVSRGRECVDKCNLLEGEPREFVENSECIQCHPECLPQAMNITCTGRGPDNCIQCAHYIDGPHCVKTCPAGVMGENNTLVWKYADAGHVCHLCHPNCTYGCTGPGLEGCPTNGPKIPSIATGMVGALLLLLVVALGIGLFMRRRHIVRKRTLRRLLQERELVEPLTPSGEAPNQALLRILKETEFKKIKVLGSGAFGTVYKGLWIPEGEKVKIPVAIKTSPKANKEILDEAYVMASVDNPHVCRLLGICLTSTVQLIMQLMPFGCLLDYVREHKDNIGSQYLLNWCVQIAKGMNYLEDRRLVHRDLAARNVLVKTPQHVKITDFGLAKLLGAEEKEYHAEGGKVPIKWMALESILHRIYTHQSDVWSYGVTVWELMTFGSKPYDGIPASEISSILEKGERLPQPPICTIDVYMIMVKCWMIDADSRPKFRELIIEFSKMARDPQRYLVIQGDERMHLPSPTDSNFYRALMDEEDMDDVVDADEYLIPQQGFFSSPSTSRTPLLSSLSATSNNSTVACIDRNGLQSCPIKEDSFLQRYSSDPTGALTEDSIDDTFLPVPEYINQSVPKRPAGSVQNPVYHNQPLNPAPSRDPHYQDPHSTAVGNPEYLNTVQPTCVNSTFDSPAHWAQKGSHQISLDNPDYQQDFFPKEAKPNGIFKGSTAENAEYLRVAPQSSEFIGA
Description: An expression vector, pLVX-IRES puro (Clontech) coding for human EGFR E746-A750 deletion and T790M Mutation, was transfected into HEK293 cells by the Trans-Lentiviral ORF Packaging System (Thermo Scientific), to produce virus encoding EGFR exon 19 deletion and T790M mutations. […] Ba/F3 cells expressing EGFR E746-A750 deletion and T790M Mutation (named Ba/F3-EGFR-Del/T790M) can proliferate in the absence of IL-3. The anti-proliferative activity of compounds was determined as follows: BaF3-EGFR-Del/T790M cells seeded in 96 well plates (2500 cells/well) were treated with test compound (dissolved in DMSO) at a series of concentrations (4-fold dilution, top concentration: 10,000 nM). The plates were incubated for 72 h in a 37° C. incubator with 5% CO2, and the number of viable cells in each well were measured indirectly by CellTiter 96® Aqueous One Solution Cell Proliferation Assay (Promega; this assay is a colorimetric method for determining the number of viable cells through measurement of their metabolic activity by detection of enzymatic conversion of tetrazolium salts into blue formazan derivatives). Reagent (20 μL) was added into each well, and the plates were returned to the incubator for 2 h. The absorbance in each well was then measured at 490 nm using an Envision plate reader (Perkin Elmer).
Experiment [4] addresses human EGFR L858R and T790M double mutation (LT) (Homo sapiens (Human), UniProt P00533, L858R/T790M). Briefly: Ba/F3-EGFR L858R/T790M cell anti-proliferative assay (CellTiter 96 MTS, 72 h).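 On all read-outs here: Ba/F3 cells carrying the EGFR L858R/T790M double mutant are able to grow without IL-3.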 The following applies: Ba/F3-EGFR L858R/T790M cells; for IC50: read-out: EGFR exon 21 L858R and T790M mutation IC50.
Description: An expression vector, pLVX-IRES puro (Clontech) coding for human EGFR L858R and T790M double mutation, was transfected into HEK293 cells by the Trans-Lentiviral ORF Packaging System (Thermo Scientific), to produce virus encoding EGFR L858R and T790M double mutations. […] Ba/F3 cells expressing EGFR L858R and T790M double mutation (named Ba/F3-EGFR L858R/T790M) can proliferate in the absence of IL-3. The anti-proliferative activity of compounds was determined as follows: BaF3-EGFR L858R/T790M cells seeded in 96 well plates (2500 cells/well) were treated with test compound (dissolved in DMSO) at a series of concentrations (4-fold dilution, top concentration: 10,000 nM). The plates were incubated for 72 h in a 37° C. incubator with 5% CO2, and the number of viable cells in each well were measured indirectly by CellTiter 96® Aqueous One Solution Cell Proliferation Assay (Promega; this assay is a colorimetric method for determining the number of viable cells through measurement of their metabolic activity by detection of enzymatic conversion of tetrazolium salts into blue formazan derivatives). Reagent (20 μL) was added into each well, and the plates were returned to the incubator for 2 h. The absorbance in each well was then measured at 490 nm using an Envision plate reader (Perkin Elmer).
In experiment [5] the target is human EGFR exon 20 insertion NPG (H773_V774insNPG) (Homo sapiens, UniProt P00533, INS773NPG, cells depend on it). Briefly: Ba/F3-EGFR-Exon20-NPG cell anti-proliferative assay (CellTiter 96 MTS, 72 h). The following applies: read-out: EGFR exon 20 NPG insertion IC50.

A value given as a limit tells only on which side of the number the result lay.

Sequence of Her2 exon 20 YVMA insertion (A775_G776ins YVMA) (P04626 other isoform, or with tags, fused parts or gaps ins YVMA behind 775): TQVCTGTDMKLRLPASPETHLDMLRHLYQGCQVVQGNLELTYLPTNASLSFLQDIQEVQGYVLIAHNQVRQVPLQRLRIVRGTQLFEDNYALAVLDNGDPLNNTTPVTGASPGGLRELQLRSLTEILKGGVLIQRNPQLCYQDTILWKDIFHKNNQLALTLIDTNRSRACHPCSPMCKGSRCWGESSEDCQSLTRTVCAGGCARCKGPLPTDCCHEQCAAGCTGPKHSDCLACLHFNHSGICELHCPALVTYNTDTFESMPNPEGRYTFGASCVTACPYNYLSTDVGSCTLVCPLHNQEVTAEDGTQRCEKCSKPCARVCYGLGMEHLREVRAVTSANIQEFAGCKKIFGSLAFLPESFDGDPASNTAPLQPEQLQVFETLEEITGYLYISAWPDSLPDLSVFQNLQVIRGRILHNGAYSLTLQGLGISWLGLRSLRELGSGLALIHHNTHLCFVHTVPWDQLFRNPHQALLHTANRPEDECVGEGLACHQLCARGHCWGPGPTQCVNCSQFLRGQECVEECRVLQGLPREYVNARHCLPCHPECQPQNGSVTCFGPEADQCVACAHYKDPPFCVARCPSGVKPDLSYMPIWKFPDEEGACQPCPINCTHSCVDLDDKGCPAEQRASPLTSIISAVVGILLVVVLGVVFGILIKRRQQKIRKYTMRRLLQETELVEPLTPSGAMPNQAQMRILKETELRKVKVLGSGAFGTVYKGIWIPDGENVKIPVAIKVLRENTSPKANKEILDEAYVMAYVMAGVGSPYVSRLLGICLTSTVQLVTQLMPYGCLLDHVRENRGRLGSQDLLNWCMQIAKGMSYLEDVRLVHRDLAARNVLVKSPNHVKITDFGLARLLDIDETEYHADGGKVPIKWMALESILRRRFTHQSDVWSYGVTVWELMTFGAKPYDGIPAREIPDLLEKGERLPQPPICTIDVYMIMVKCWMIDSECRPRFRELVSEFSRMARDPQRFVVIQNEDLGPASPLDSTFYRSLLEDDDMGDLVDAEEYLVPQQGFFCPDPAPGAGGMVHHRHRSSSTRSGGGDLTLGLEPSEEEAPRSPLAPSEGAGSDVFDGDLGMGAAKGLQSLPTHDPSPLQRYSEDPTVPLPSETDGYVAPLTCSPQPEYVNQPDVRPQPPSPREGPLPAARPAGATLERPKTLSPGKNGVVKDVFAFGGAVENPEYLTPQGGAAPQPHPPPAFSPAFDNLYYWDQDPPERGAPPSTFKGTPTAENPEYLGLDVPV
Sequence of human EGFR L858R and T790M double mutation (LT) (P00533 25-1210 T790M/L858R): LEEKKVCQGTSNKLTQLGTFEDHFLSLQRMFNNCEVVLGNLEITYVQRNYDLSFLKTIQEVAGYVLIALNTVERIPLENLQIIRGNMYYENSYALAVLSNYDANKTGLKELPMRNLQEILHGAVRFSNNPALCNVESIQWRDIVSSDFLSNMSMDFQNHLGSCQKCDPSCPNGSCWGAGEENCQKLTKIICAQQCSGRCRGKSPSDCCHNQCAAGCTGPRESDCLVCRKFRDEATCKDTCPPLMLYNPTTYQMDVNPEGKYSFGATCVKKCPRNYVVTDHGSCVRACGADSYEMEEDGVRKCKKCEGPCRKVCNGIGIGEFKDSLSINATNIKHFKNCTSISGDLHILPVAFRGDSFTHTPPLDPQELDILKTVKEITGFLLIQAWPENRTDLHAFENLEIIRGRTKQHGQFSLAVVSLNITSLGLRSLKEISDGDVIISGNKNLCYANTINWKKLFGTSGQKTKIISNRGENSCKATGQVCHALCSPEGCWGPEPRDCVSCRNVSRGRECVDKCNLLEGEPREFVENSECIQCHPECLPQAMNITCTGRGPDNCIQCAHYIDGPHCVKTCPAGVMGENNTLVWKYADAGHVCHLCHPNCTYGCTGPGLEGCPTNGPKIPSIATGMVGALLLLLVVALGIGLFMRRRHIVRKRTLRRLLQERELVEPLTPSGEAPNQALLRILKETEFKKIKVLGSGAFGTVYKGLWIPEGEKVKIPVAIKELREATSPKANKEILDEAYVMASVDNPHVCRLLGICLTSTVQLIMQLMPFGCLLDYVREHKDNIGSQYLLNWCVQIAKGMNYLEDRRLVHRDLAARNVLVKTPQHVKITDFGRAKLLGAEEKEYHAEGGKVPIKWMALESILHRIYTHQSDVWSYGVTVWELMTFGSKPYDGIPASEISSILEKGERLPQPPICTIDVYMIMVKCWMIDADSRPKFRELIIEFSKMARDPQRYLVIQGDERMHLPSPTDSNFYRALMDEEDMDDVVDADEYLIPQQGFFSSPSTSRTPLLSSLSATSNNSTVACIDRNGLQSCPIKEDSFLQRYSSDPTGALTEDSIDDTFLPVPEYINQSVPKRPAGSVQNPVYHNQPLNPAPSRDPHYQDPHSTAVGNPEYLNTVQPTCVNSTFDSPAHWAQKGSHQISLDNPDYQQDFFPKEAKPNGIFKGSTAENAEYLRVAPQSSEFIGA

For `C=CC(=O)Nc1cc(Nc2nccc(-c3cn(CC(N)=O)c4ccccc34)n2)c(OC)cc1N(C)CCN(C)C` [Example 70, N-(5-((4-(1-(2-amino-2-oxoethyl)-1H-indol-3-yl)pyrimidin-2-yl)amino)-2-((2-(dimethylamino)ethyl)(methyl)amino)-4-methoxyphenyl)acrylamide], the IC50 (in general, the point on the concentration scale where inhibition reaches its midpoint) in experiment [1] is 100 to 500 nM; in experiment [2], under 100 nM; in experiment [3] it was under 100 nM; in experiment [4], under 100 nM.
Regarding `C=CC(=O)Nc1cc(Nc2ncc(CC)c(-c3cn(CC(N)=O)c4ccccc34)n2)c(OC)cc1N(C)CCN(C)C` [Example 71, N-(5-((4-(1-(2-amino-2-oxoethyl)-1H-indol-3-yl)-5-ethylpyrimidin-2-yl)amino)-2-((2-(dimethylamino)ethyl)(methyl)amino)-4-methoxyphenyl)acrylamide], the IC50 was 100 to 500 nM in experiment [1], under 100 nM in experiment [2], under 100 nM in experiment [3] and under 100 nM in experiment [4].
With `C=CC(=O)Nc1cc(Nc2ncc(CC)c(-c3cn(CC(=O)NC)c4ccccc34)n2)c(OC)cc1N(C)CCN(C)C` [Example 72, N-(2-((2-(dimethylamino)ethyl)(methyl)amino)-5-((5-ethyl-4-(1-(2-(methylamino)-2-oxoethyl)-1H-indol-3-yl)pyrimidin-2-yl)amino)-4-methoxyphenyl)acrylamide], the IC50 is 100 to 500 nM in experiment [1], under 100 nM in experiment [2], under 100 nM in experiment [3] and under 100 nM in experiment [4].
Turning to `C=CC(=O)Nc1cc(Nc2nccc(-c3cn(C)c4cc(C(=O)OC(C)C)ccc34)n2)c(OC)cc1N(C)CCN(C)C` [Example 84, isopropyl 3-(2-((5-acrylamido-4-((2-(dimethylamino)ethyl)(methyl)amino)-2-methoxyphenyl)amino)pyrimidin-4-yl)-1-methyl-1H-indole-6-carboxylate], the IC50 in experiment [1] is 500 to 1000 nM; in experiment [2] it was 500 to 1000 nM; in experiment [3], under 100 nM; in experiment [4] it was under 100 nM.
Take `C=CC(=O)Nc1cc(Nc2nccc(-c3cn(C)c4c(C(=O)OC(C)C)cccc34)n2)c(OC)cc1N(C)CCN(C)C` [Example 85, isopropyl 3-(2-((5-acrylamido-4-((2-(dimethylamino)ethyl)(methyl)amino)-2-methoxyphenyl)amino)pyrimidin-4-yl)-1-methyl-1H-indole-7-carboxylate]: the IC50 in experiment [1] was 100 to 500 nM; in experiment [2] it was 100 to 500 nM; in experiment [3], under 100 nM; in experiment [4], under 100 nM.
For the compound `C=CC(=O)Nc1cc(Nc2nccc(-c3c(C(=O)OC)n(C)c4ccccc34)n2)c(OC)cc1N(C)CCN(C)C` [Example 86, methyl 3-(2-((5-acrylamido-4-((2-(dimethylamino)ethyl)(methyl)amino)-2-methoxyphenyl)amino)pyrimidin-4-yl)-1-methyl-1H-indole-2-carboxylate], the IC50 is 500 to 1000 nM in experiment [1], under 100 nM in experiment [2], under 100 nM in experiment [3] and under 100 nM in experiment [4].
For the compound `C=CC(=O)Nc1cc(Nc2nccc(-c3c(C#N)n(C)c4ccccc34)n2)c(OC)cc1N(C)CCN(C)C` [Example 88, N-(5-((4-(2-cyano-1-methyl-1H-indol-3-yl)pyrimidin-2-yl)amino)-2-((2-(dimethylamino)ethyl)(methyl)amino)-4-methoxyphenyl)acrylamide], the IC50 in experiment [1] was 100 to 500 nM; in experiment [2], under 100 nM; in experiment [3], under 100 nM; in experiment [4], under 100 nM.
Take `C=CC(=O)Nc1cc(Nc2nccc(-c3cn(C)c4cc(C#N)ccc34)n2)c(OC)cc1N(C)CCN(C)C` [Example 89, N-(5-((4-(6-cyano-1-methyl-1H-indol-3-yl)pyrimidin-2-yl)amino)-2-((2-(dimethylamino)ethyl)(methyl)amino)-4-methoxyphenyl)acrylamide]: the half-inhibitory concentration (IC50) in experiment [1] is 100 to 500 nM; in experiment [2], under 100 nM; in experiment [3], under 100 nM; in experiment [4], under 100 nM.
In the case of `C=CC(=O)Nc1cc(Nc2nccc(-c3c(C(N)=O)n(C)c4ccccc34)n2)c(OC)cc1N(C)CCN(C)C` [Example 90, 3-(2-((5-acrylamido-4-((2-(dimethylamino)ethyl)(methyl)amino)-2-methoxyphenyl)amino)pyrimidin-4-yl)-1-methyl-1H-indole-2-carboxamide], the IC50 is 500 to 1000 nM in experiment [1], 100 to 500 nM in experiment [2], under 100 nM in experiment [3] and under 100 nM in experiment [4].
On to `C=CC(=O)Nc1cc(Nc2nccc(-c3c(C(=O)NC)n(C)c4ccccc34)n2)c(OC)cc1N(C)CCN(C)C` [Example 91, 3-(2-((5-acrylamido-4-((2-(dimethylamino)ethyl)(methyl)amino)-2-methoxyphenyl)amino)pyrimidin-4-yl)-N,1-dimethyl-1H-indole-2-carboxamide], for which the values for the IC50 in experiment [1], in experiment [2] and in experiment [3] were 500 to 1000 nM, 100 to 500 nM and under 100 nM, respectively. In addition, the “EGFR exon 21 L858R and T790M mutation IC50” value in experiment [4] is on record as “B (Group B compounds have an IC50 value for the indicated mutant between about 100 to about 500 nM)”.
`C=CC(=O)Nc1cc(Nc2nccc(-c3c(C(=O)N(C)C)n(C)c4ccccc34)n2)c(OC)cc1N(C)CCN(C)C` [Example 92, 3-(2-((5-acrylamido-4-((2-(dimethylamino)ethyl)(methyl)amino)-2-methoxyphenyl)amino)pyrimidin-4-yl)-N,N,1-trimethyl-1H-indole-2-carboxamide]: the concentration for half-maximal inhibition (IC50) in experiment [1] was 100 to 500 nM; in experiment [2], under 100 nM; in experiment [3], under 100 nM; in experiment [4] it was under 100 nM.
As to `C=CC(=O)Nc1cc(Nc2nccc(-c3c(C(=O)NCCOC)n(C)c4ccccc34)n2)c(OC)cc1N(C)CCN(C)C` [Example 93, 3-(2-((5-acrylamido-4-((2-(dimethylamino)ethyl)(methyl)amino)-2-methoxyphenyl)amino)pyrimidin-4-yl)-N-(2-methoxyethyl)-1-methyl-1H-indole-2-carboxamide], the results for the IC50 in experiment [1] and in experiment [2] were over 1000 nM and 500 to 1000 nM, respectively. For the same compound, in experiment [3], the “EGFR exon 19 deletion and T790M mutation IC50” value is “B (Group B compounds have an IC50 value for the indicated mutant between about 100 to about 500 nM)”. Besides, the “EGFR exon 21 L858R and T790M mutation IC50” value in experiment [4] is “C (Group C compounds have an IC50 value for the indicated mutant between greater than about 500 to about 1 μM)”.
`C=CC(=O)Nc1cc(Nc2nccc(-c3cn(C)c4cc(-c5cnn(C)c5)ccc34)n2)c(OC)cc1N(C)CCN(C)C` [Example 95, N-(2-((2-(dimethylamino)ethyl)(methyl)amino)-4-methoxy-5-((4-(1-methyl-6-(1-methyl-1H-pyrazol-4-yl)-1H-indol-3-yl)pyrimidin-2-yl)amino)phenyl)acrylamide]: the IC50 in experiment [1] is 100 to 500 nM; in experiment [2], under 100 nM; in experiment [3] it was under 100 nM; in experiment [4], under 100 nM.
`C=CC(=O)Nc1cc(Nc2ncc(P(C)(C)=O)c(-c3cn(C)c4ccccc34)n2)c(OC)cc1N(C)CCN(C)C` [Example 96, N-(2-((2-(dimethylamino)ethyl)(methyl)amino)-5-((5-(dimethylphosphoryl)-4-(1-methyl-1H-indol-3-yl)pyrimidin-2-yl)amino)-4-methoxyphenyl)acrylamide]: the IC50 in experiment [1] and in experiment [2] was over 1000 nM throughout. Besides, in experiment [3], the “EGFR exon 19 deletion and T790M mutation IC50” value is “B (Group B compounds have an IC50 value for the indicated mutant between about 100 to about 500 nM)”. Moreover, the “EGFR exon 21 L858R and T790M mutation IC50” value in experiment [4] is recorded as “B (Group B compounds have an IC50 value for the indicated mutant between about 100 to about 500 nM)”.
With `C=CC(=O)Nc1cc(Nc2ncc(C(=O)OC(C)C)c(-n3cc(C)c4ccccc43)n2)c(OC)cc1N(C)CCN(C)C` [Example 97, isopropyl 2-((5-acrylamido-4-((2-(dimethylamino)ethyl)(methyl)amino)-2-methoxyphenyl)amino)-4-(3-methyl-1H-indol-1-yl)pyrimidine-5-carboxylate], the IC50 was 100 to 500 nM in experiment [1], 100 to 500 nM in experiment [2], under 100 nM in experiment [5] and under 100 nM in experiment [3].
On to `C=CC(=O)Nc1cc(Nc2ncc(C#N)c(-c3nn(C)c4ccccc34)n2)c(OC)cc1N(C)CCN(C)C` [Example 98, N-(5-((5-cyano-4-(1-methyl-1H-indazol-3-yl)pyrimidin-2-yl)amino)-2-((2-(dimethylamino)ethyl)(methyl)amino)-4-methoxyphenyl)acrylamide], for which the IC50 in experiment [1], in experiment [2], in experiment [5] and in experiment [3] was under 100 nM in each case.
With `C=CC(=O)Nc1cc(Nc2ncc(NC(=O)NC)c(-c3cn(C)c4ccccc34)n2)c(OC)cc1N(C)CCN(C)C` [Example 99, N-(2-((2-(dimethylamino)ethyl)(methyl)amino)-4-methoxy-5-((4-(1-methyl-1H-indol-3-yl)-5-(3-methylureido)pyrimidin-2-yl)amino)phenyl)acrylamide], the half-maximal inhibitory concentration (IC50) in experiment [1] is over 1000 nM; in experiment [2], 500 to 1000 nM; in experiment [3], over 1000 nM; in experiment [4], over 1000 nM.

Values taken from patent US10227342B2 (ARIAD PHARMACEUTICALS, INC., priority 2014, dated 2019).
